The results in this text go back to US5457104A, “Quinolone- and naphthyridonecarboxylic acid derivatives” (Bayer Aktiengesellschaft, priority 1993, dated 1995).

The structures appear in SMILES notation. ≈ marks a conversion by molar mass, not a printed value.

Assay in all cases: MIC, serial dilution test on Iso-sensitest agar
Holding throughout (assay type): cell-based

The test system of assay [1] is Klebsiella pneumoniae 8085. To be noted: 37° C., approx. 20 hours, approx. 10^4 CFU per inoculation point. The method, then:
(§1) The minimum inhibitory concentrations (MIC) were determined by the serial dilution test on Iso-sensitest agar (Oxoid). For each test substance, a series of agar plates was prepared which contained concentrations of the active substance which decreased at a rate of in each case twice the dilution factor. The agar plates were inoculated using a multipoint inoculator (Denley). For inoculation, overnight cultures of the pathogens were used which had previously been diluted in such a manner that each inoculation point contained approximately 10^4 colony-forming units. The inoculated agar plates were incubated at 37° C., and the microbial growth was observed after approx. 20 hours. The MIC value (μg/ml) indicates the lowest active compound concentration at which no growth could be detected by the naked eye.

The test system of assay [2] is Staphylococcus aureus 133. The settings on record: 37° C., approx. 20 hours, approx. 10^4 CFU per inoculation point. Here is the method: as §1
The test system of assay [3] is Enterococcus faecalis 9790. To be noted: 37° C., approx. 20 hours, approx. 10^4 CFU per inoculation point. The method, then:
as §1

Assay [4] has as its system Staphylococcus aureus 25768. The settings on record: 37° C., approx. 20 hours, approx. 10^4 CFU per inoculation point. The method, then: as §1
Assay [5] relates to Acinetobacter caloaceticus 14068. The settings on record: 37° C., approx. 20 hours, approx. 10^4 CFU per inoculation point. The method, then: as §1
For assay [6], the system named is Staphylococcus aureus ICB 25701. To be noted: ICB25701, 37° C., approx. 20 hours, approx. 10^4 CFU per inoculation point. Here is the method:
as §1

The test system of the next assay is Providencia sp. 12012. To be noted: 37° C., approx. 20 hours, approx. 10^4 CFU per inoculation point. The method, then: as §1
For the next assay, the system named is Klebsiella pneumoniae 63. To be noted: 37° C., approx. 20 hours, approx. 10^4 CFU per inoculation point. Here is the method:
as §1

For the next assay, the system named is Providencia sp. 12052. To be noted: 37° C., approx. 20 hours, approx. 10^4 CFU per inoculation point. The method, then: as §1
The subject of assay [7] is Staphylococcus aureus 1756. To be noted: 37° C., approx. 20 hours, approx. 10^4 CFU per inoculation point. The method, then:
as §1

Another assay has as its system E. coli 455/7. To be noted: Escherichia coli, 37° C., approx. 20 hours, approx. 10^4 CFU per inoculation point. The method, then:
as §1

The subject of assay [8] is Enterococcus faecalis 27101. To be noted: 37° C., approx. 20 hours, approx. 10^4 CFU per inoculation point. The method, then:
as §1

For the next assay, the system named is Mirococcus luteus 9341. To be noted: 37° C., approx. 20 hours, approx. 10^4 CFU per inoculation point. Here is the method:
as §1

The next assay has as its system E. coli Neumann. To be noted: Escherichia coli, 37° C., approx. 20 hours, approx. 10^4 CFU per inoculation point. The method, then:
as §1

On to `CC1C=CC(N)C2CN(c3ccc4c(=O)c(C(=O)O)cn(C5CC5)c4c3F)CC12` (stereo not shown) [Example 21], for which the minimum inhibitory concentration (MIC) in assay [1] was determined as 0.3 µg/mL (≈ 0.755 µM); in assay [2], 0.015 µg/mL (≈ 0.0377 µM); in assay [3], 0.06 µg/mL (≈ 0.151 µM); in assay [4] it was 2 µg/mL (≈ 5.03 µM); in assay [5], 0.03 µg/mL (≈ 0.0755 µM); in assay [6], 0.25 µg/mL (≈ 0.629 µM). Besides, the MIC against Providencia sp. 12012 stood at 0.06 µg/mL (≈ 0.151 µM); against Klebsiella pneumoniae 63 it was 0.3 µg/mL (≈ 0.755 µM); in the assay on Providencia sp. 12052, 1 µg/mL (≈ 2.52 µM); in assay [7], 0.015 µg/mL (≈ 0.0377 µM); against E. coli 455/7 it was 0.5 µg/mL (≈ 1.26 µM); in [8] it was 0.06 µg/mL (≈ 0.151 µM). Besides, the MIC stood at 0.125 µg/mL (≈ 0.315 µM) with Mirococcus luteus 9341 and 0.015 µg/mL (≈ 0.0377 µM) in the assay on E. coli Neumann.

As to `NC1CCN(c2ccc3c(=O)c(C(=O)O)cn(C4CC4)c3c2F)C1` (stereo not shown) [Reference, 7-(3-aminopyrrolidin-1-yl)-1-cyclopropyl-8-fluoro-1,4-dihydro-4-oxo-3-quinolinecarboxylic acid, reference compound], the MIC in assay [1] worked out at 0.062 µg/mL (≈ 0.187 µM); in assay [2], 0.125 µg/mL (≈ 0.377 µM); in assay [3], 0.25 µg/mL (≈ 0.754 µM); in assay [4] it was 16 µg/mL (≈ 48.3 µM); in assay [5] it was 0.25 µg/mL (≈ 0.754 µM); in assay [6] it was 4 µg/mL (≈ 12.1 µM). For the same compound, the MIC was found to be 0.06 µg/mL (≈ 0.181 µM) against Providencia sp. 12012; 0.062 µg/mL (≈ 0.187 µM) in the assay with Klebsiella pneumoniae 63; 2 µg/mL (≈ 6.04 µM) against Providencia sp. 12052; 0.125 µg/mL (≈ 0.377 µM) in assay [7]; 1 µg/mL (≈ 3.02 µM) against E. coli 455/7; 0.25 µg/mL (≈ 0.754 µM) in assay [8]. The MIC was found to be 0.5 µg/mL (≈ 1.51 µM) in the assay with Mirococcus luteus 9341 and 0.031 µg/mL (≈ 0.0936 µM) in the assay on E. coli Neumann.

In the case of `NC1C=CCC2CN(c3ccc4c(=O)c(C(=O)O)cn(C5CC5)c4c3Cl)CC12` (stereo not shown) [Example 7], the MIC in [1] was determined as 0.015 µg/mL (≈ 0.0375 µM); in [2], 0.0039 µg/mL (≈ 0.00975 µM); in [3] it was 0.03 µg/mL (≈ 0.075 µM); in assay [4], 2 µg/mL (≈ 5 µM); in [5] it was 0.015 µg/mL (≈ 0.0375 µM); in assay [6] it was 0.06 µg/mL (≈ 0.15 µM). The MIC against Providencia sp. 12012 came out at 0.015 µg/mL (≈ 0.0375 µM); against Klebsiella pneumoniae 63, 0.015 µg/mL (≈ 0.0375 µM); against Providencia sp. 12052 it was 1 µg/mL (≈ 2.5 µM); in assay [7], 0.0039 µg/mL (≈ 0.00975 µM); against E. coli 455/7, 0.5 µg/mL (≈ 1.25 µM); in [8] it was 0.015 µg/mL (≈ 0.0375 µM). Moreover, the minimal inhibitory concentration (MIC) against Mirococcus luteus 9341 stood at 0.03 µg/mL (≈ 0.075 µM); with E. coli Neumann it was 0.0078 µg/mL (≈ 0.0195 µM).

As to `CC1C=CC(N)C2CN(c3ccc4c(=O)c(C(=O)O)cn(C5CC5)c4c3Cl)CC12` (stereo not shown) [Example 8], the MIC in [1] was determined as 0.03 µg/mL (≈ 0.0725 µM); in assay [2] it was 0.0078 µg/mL (≈ 0.0188 µM); in [3], 0.06 µg/mL (≈ 0.145 µM); in [4] it was 2 µg/mL (≈ 4.83 µM); in [5] it was 0.03 µg/mL (≈ 0.0725 µM); in assay [6], 0.06 µg/mL (≈ 0.145 µM). Further, the minimum inhibitory concentration (MIC) is 0.06 µg/mL (≈ 0.145 µM) against Providencia sp. 12012; 0.03 µg/mL (≈ 0.0725 µM) with Klebsiella pneumoniae 63; 1 µg/mL (≈ 2.42 µM) in the assay on Providencia sp. 12052; 0.0078 µg/mL (≈ 0.0188 µM) in [7]; 0.5 µg/mL (≈ 1.21 µM) against E. coli 455/7; 0.06 µg/mL (≈ 0.145 µM) in [8]. Also, the minimum inhibitory concentration (MIC) came to 0.06 µg/mL (≈ 0.145 µM) with Mirococcus luteus 9341 and 0.015 µg/mL (≈ 0.0362 µM) in the assay on E. coli Neumann.

Turning to `NC1C=CCC2CN(c3ccc4c(=O)c(C(=O)O)cn(C5CC5)c4c3F)CC12` (stereo not shown) [Example 20], the MIC was 0.03 µg/mL (≈ 0.0782 µM) in assay [1]; 0.03 µg/mL (≈ 0.0782 µM) in assay [2]; 0.06 µg/mL (≈ 0.156 µM) in [3]; 4 µg/mL (≈ 10.4 µM) in assay [4]; 0.06 µg/mL (≈ 0.156 µM) in [5]; 0.25 µg/mL (≈ 0.652 µM) in assay [6]. Besides, the MIC turned out to be 0.06 µg/mL (≈ 0.156 µM) in the assay on Providencia sp. 12012; 0.03 µg/mL (≈ 0.0782 µM) against Klebsiella pneumoniae 63; 1 µg/mL (≈ 2.61 µM) with Providencia sp. 12052; 0.015 µg/mL (≈ 0.0391 µM) in assay [7]; 1 µg/mL (≈ 2.61 µM) against E. coli 455/7; 0.06 µg/mL (≈ 0.156 µM) in [8]. Further, the MIC came out at 0.06 µg/mL (≈ 0.156 µM) in the assay with Mirococcus luteus 9341 and 0.03 µg/mL (≈ 0.0782 µM) with E. coli Neumann.

As a reminder, the MIC is the least concentration at which growth counts as inhibited.
